Laboratory results reported in patent US9187458B2, “Cyanoquinoline derivatives” (Tianjin Hemay Bio-Tech Co., LTD., priority 2010, dated 2015).

Key:
A431 cells = assay: A431 Cell Growth Inhibition Test (MTT Assay); type: cell-based, human; conditions: Homo sapiens; for inhibition at 1 µM: A-431, 68 h, compound 1 μM, 68 h incubation, read-out: Growth Inhibition Ratio (%); for IC50: A-431, 68 h incubation
Method: A431 Cell Growth Inhibition Test (MTT Assay)
1. Cell strains: A431 (human epithelial […] cell strains);
Culture medium: 45% DMEM, 45% F12+10% FBS;
(§1) 1. A plate (10 cm) of cells in logarithmic growth phase normally cultured was collected;
(§2) 2. The culture solution was sucked out. The plate was washed with 5 ml of PBS 1-2 times;
3. PBS was sucked out, and 2 ml of 0.25% pancreatin was added to infiltrate the cells for 1 min;
4. The pancreatin was sucked out, and the culture plate was placed in an incubator. Digestion was carried out for about 15 min at 37° C.;
(§3) 5. 4 ml of complete culture solution was added in the culture plate to stop the digestion. The cells were carefully scoured with micropipette (1 ml) to give a uniform cell suspension. The suspension was implanted into a 96-well cell culture plate by 2500 cells/100 μl per well. The culture plate was incubated overnight under 5% CO2 at 37° C. In day 2, 100 μl of culture solution comprising the compound was added in each well, and further incubated for 68 h under 5% CO2 at 37° C.
(§4) 6. The culture solution was sucked out;
7. 100 μl of serum-free culture solution containing 0.5 mg/ml MTT was added in each well, and incubated for 4 h;
(§5) 8. The culture solution was carefully sucked out;
9. 100 μl of DMSO was added into each well and vibrated to dissolve;
(§6) 10. OD values were determined at 490 nM.
(§7) 1. Calculation of Relative Inhibition Ratio The inhibition ratio of a compound on cell growth=(PC−n)/(PC−NC)×100%
IC50: concentration of a compound where inhibition ratio was 50%. IC50 values were fitted with Origin7.5.

BT-474 cells = assay: BT-474 Cell Growth Inhibition Test (SRB Assay); type: cell-based, human; conditions: Homo sapiens, 70 h incubation; for inhibition at 1 µM: BT-474, 70 h, compound 1 μM, read-out: Growth Inhibition Ratio (%)
Method: BT-474 Cell Growth Inhibition Test (SRB Assay)
1. Cell strains: BT-474 (human breast tumor cell strains);
2. SRB: available from Sigmaaldrich, goods number: S9012, lot number: 047K3751. SRB was reserved at the room temperature. 0.4% (w/v) of working solution was formulated with 1% of glacial acetic acid. The solution was reserved at the temperature of 4° C.; anti-tumor compounds; DMSO.
Culture medium (90% EMEM+10% FBS+0.1 mM NEAA, reserved at 4° C.);
(§8) 1. A plate (10 cm) of cells in logarithmic growth phase normally cultured was collected. The culture solution was sucked out. The plate was washed with 5 mL of PBS 1-2 times;
2. PBS was sucked out, and […] of 0.25% pancreatin was added to infiltrate the cells for 30 s;
3. The pancreatin was sucked out. The culture plate was pleaced in an incubator. Digestion was carried out for about 5 min at 37° C.;
4. 3 mL of complete culture solution was added to the culture plate to stop the digestion. The cells were carefully scoured with micropipette (1 ml) to give a uniform single cell suspension;
5. Cell suspension was counted. The suspension was diluted to 1×10^5/ml. The resulting suspension was developed uniformly on a plate. The plate was incubated under 5% CO2 at 37° C. overnight. In day 2, 80 μL of complete culture medium was added in each well and then 20 μL of culture solution comprising a compound was added. The mixture was incubated for 70 h under 5% CO2 at 37° C.
(§9) 6. The culture solution was sucked out. 100 uL of TCA fixed cells which were diluted to 10% were added to each well. The plate was kept in a refrigerator for 1 h at 4° C.
(§10) 7. TCA stationary liquid was sucked out. Each well was washed with 150 μL of ddH2O five times;
(§11) 8. After the stationary liquid was cleansed, the plate was dried in the air at the room temperature;
(§12) 9. 60 μL of SRB staining solution was added in each well. The well was stained for 15 min at the room temperature;
(§13) 10. The SRB staining solution was sucked out. Each well was washed with 150 μL of 1% glacial acetic acid five times;
(§14) 11. After the SRB staining solution was cleansed, the plate was dried in the air at the room temperature;
(§15) 12. 100 μL of 10 mM Tris was added in each well. The plate was vibrated to dissolve out SRB;
(§16) 13. OD values were determined at 570 nM.
as §7
(§17) IC50: Concentration of a compound where inhibition ratio was 50%. IC50 values were fitted with Origin7.5.

NCI-N87 cells = assay: NCI-N87 Cell Growth Inhibition Test (MTT Assay); type: cell-based; conditions: Homo sapiens, 72 h incubation
Method: NCI-N87 Cell Growth Inhibition Test (MTT Assay)
1. Cell strains: NCI-N87 (human gastric carcinoma cell strains);
as §1
2. The culture solution was sucked out. The plate was washed wtih 5 ml of PBS 1-2 times;
(§18) 3. PBS was sucked out. 1.5 ml of 0.25% pancreatin was added to infiltrate the cells for 1 min;
4. The pancreatin was sucked out. The culture plate was placed in an incubator. Digestion was carried out for about 12 min at 37° C.;
(§19) 5. 4.5 ml of complete culture solution was added to the culture plate to stop the digestion. The cells were carefully scoured with micropipette (1 ml) to give a uniform cell suspension. The suspension was implanted into a 96-well cell culture disc by 17000 cells/100 μl per well. The culture plate was incubated overnight under 5% CO2 at 37° C. In day 2, 100 μl of culture solution comprising a compound was added in each well, and further incubated for 72 h under 5% CO2 at 37° C.
as §4
(§20) 7. 100 μl of serum-free culture solution containing 0.5 mg/ml MTT was added in each well, and incubated for 3 h;
as §5
(§21) 9. 100 μl of DMSO was added in each welland vibrated to dissolve;
as §6
1. Calculation of Rrelative Inhibition Ratio The inhibition ratio of a compound on cell growth=(PC−n)/(PC−NC)×100%
as §17

Sk-Br-3 cells = assay: Sk-Br-3 Cell Growth Inhibition Test (SRB Assay); type: cell-based; conditions: Homo sapiens, 91 h incubation
Method: Sk-Br-3 Cell Growth Inhibition Test (SRB Assay)
1. Cell strains: Sk-Br-3 (human breast cancer cell strains);
2. SRB: available from Sigmaaldrich, goods number: S9012, lot number: 047K3751. SRB was reserved at the room temperature. 0.4% (w/v) of working solution was formulated with 1% of glacial acetic acid. The solution was reserved at 4° C.; anti-tumor compounds; DMSO
Culture medium: 90% DMEM+10% FBS;
as §8
2. PBS was sucked out. […] of 0.25% pancreatin was added to infiltrate the cells for 30 s;
3. The pancreatin was sucked out. The culture plate was placed in an incubator. Digestion was carried out for about 1.5-2 min at 37° C.;
4. 4 mL of complete culture solution was added to the culture plate to stop the digestion. The cells were carefully scoured with micropipette (1 ml) to give a uniform single cell suspension;
5. Cell suspension was counted. The suspension was diluted to 1×10^5/ml. The resulting suspension was developed uniformly on a plate by 10000 cells/100 μl per well. The culture plate was incubated overnight under 5% CO2 at 37° C. In day 2, 100 μl of culture solution comprising a compound was added in each well, and further incubated for 91 h under 5% CO2 at 37° C.
as §9, §10, §11, §12, §13, §14, §15, §16
To: OD values of the starting content of cells when the cells were developed on a plate;
PC: OD values of cells after normal growth in control wells without a compound;
Ti: OD values of cells after growth in test wells with a compound;
NC: Background OD values of blank well without a compound and cells
Therefore: Ratio of cells in test wells to normal wells (% of control cell growth)=(Ti−To)/(PC−To)×100%
Ratio GI50 was concentration of a compound at the point of 50%.
Therefore: Ratio of killed cells to inoculated cells (% of killed cells)=(Ti−To)/(To−NC)×100%
LC50 was concentration point of a compound when half of the starting inoculated concentration was reached.
Concentration of a compound at this point is defined as TGI (total growth inhibition).

Fadu cells = assay: Fadu Cell Growth Inhibition Test (MTT Assay); type: cell-based; conditions: Homo sapiens, 72 h incubation
Method: Fadu Cell Growth Inhibition Test (MTT Assay)
Cell strains: Fudu (human head and neck cancer cell strains);
Culture medium: 90% EMEM+10% FBS;
as §1, §2, §18
4. The pancreatin was sucked out. The culture plate was placed in an incubator. Digestion was carried out for about 5 min at 37° C.;
as §19, with “plate” for “disc”, “6000” for “17000”
as §4, §20, §5, §21, §6, §7, §17

A549 cells = assay: A549 Cell Growth Inhibition Test (MTT Assay); type: cell-based; conditions: Homo sapiens, 72 h incubation
Method: A549 Cell Growth Inhibition Test (MTT Assay)
1. Cell strains: […] (human lung caner cell strains);
Culture medium: 90% F12K+10% FBS;
as §1
2. The culture solution was sucked out. Tthe plate was washed with 5 ml of PBS 1-2 times;
(§22) 3. PBS was sucked out. 2 ml of 0.25% pancreatin was added to infiltrate the cells for 1 min;
(§23) 4. The pancreatin was sucked out. The culture plate was placed in an incubator. Digestion was carried out for about 2 min at 37° C.;
as §3, with “was added to the culture” for “was added in the culture”, “solution comprising a compound was” for “solution comprising the compound was”, “incubated for 72 h under” for “incubated for 68 h under”
as §4, §20, §5
(§24) 9. 100 μl of DMSO was added in each well and vibrated to dissolve;
as §6, §7, §17

NCI-H460 cells = assay: NCI-H460 Cell Growth Inhibition Test (MTT Assay); type: cell-based; conditions: Homo sapiens, 72 h incubation
Method: NCI-H460 Cell Growth Inhibition Test (MTT Assay)
1. Cell strains: NCI-H460 (human large cell lung cancer cell strains);
as §1, §2, §22, §23
as §3, with “was added to the culture” for “was added in the culture”, “solution comprising a compound was” for “solution comprising the compound was”, “incubated for 72 h under” for “incubated for 68 h under”
as §4, §20, §5, §24, §6, §7, §17

`CN(C)C/C=C/C(=O)Nc1cc2c(Nc3ccc(OCc4cccc(F)c4)c(Cl)c3)c(C#N)cnc2cc1OC1CCOC1` (mixture of isomers) [Example 180, (E/Z)-N-(4-(4-(3-FLUOROBENZYLOXY)-3-CHLOROPHENYLAMINO)-3-CYANO-7-(TETRAHYDROFURAN-3-YL-OXY)QUINOLIN-6-YL)-4-(DIMETHYLAMINO)-BUT-2-ENAMIDE] gave an inhibition at 1 µM (A431 cells) of 73% and an inhibition at 1 µM (BT-474 cells) of 78%.
With `Cc1ccccc1COc1ccc(Nc2c(C#N)cnc3cc(O[C@H]4CCOC4)c(NC(=O)/C=C/CN(C)C)cc23)cc1Cl` [Example 166, (S,E)-N-(4-(4-(2-METHYLBENZYLOXY)-3-CHLOROPHENYLAMINO)-3-CYANO-7-(TETRAHYDROFURAN-3-YL-OXY)QUINOLIN-6-YL)-4-(DIMETHYLAMINO)-BUT-2-ENAMIDE] the inhibition at 1 µM (A431 cells) was 69% and the inhibition at 1 µM (BT-474 cells) was 69%.
For `Cc1ccc(COc2ccc(Nc3c(C#N)cnc4cc(O[C@H]5CCOC5)c(NC(=O)/C=C/CN(C)C)cc34)cc2Cl)cc1` [Example 167, (S,E)-N-(4-(4-(4-METHYLBENZYLOXY)-3-CHLOROPHENYLAMINO)-3-CYANO-7-(TETRAHYDROFURAN-3-YL-OXY)QUINOLIN-6-YL)-4-(DIMETHYLAMINO)-BUT-2-ENAMIDE], the inhibition at 1 µM (A431 cells) was 75% and the inhibition at 1 µM (BT-474 cells) was 75%.
For `C#Cc1cccc(Nc2c(C#N)cnc3cc(OC4CCOC4)c(NC(=O)/C=C/CN(C)C)cc23)c1` (mixture of isomers) [Example 177, (E/Z)-N-(3-CYANO-4-(3-ETHYNYLPHENYLAMINO)-7-(TETRAHYDROFURAN-3-YL-OXY)QUINOLIN-6-YL)-4-(DIMETHYLAMINO)-BUT-2-ENAMIDE], the inhibition at 1 µM (A431 cells) was 81% and the inhibition at 1 µM (BT-474 cells) was 87%.
Molecule `N#Cc1cnc2cc(O[C@H]3CCOC3)c(NC(=O)/C=C/CNCCCCCCO)cc2c1Nc1ccc(OCc2ccccn2)c(Cl)c1` [Example 154, (S,E)-N-(4-(3-CHLORO-4-(PYRIDIN-2-YL-METHOXY)PHENYLAMINO)-3-CYANO-7-(TETRAHYDROFURAN-3-YL-OXY)QUINOLIN-6-YL)-4-(6-HYDROXYHEXYLAMINO)-BUT-2-ENAMIDE] has an IC50 (A431 cells) of 162 nM, an IC50 (BT-474 cells) of 12 nM and an IC50 (NCI-N87 cells) of 41 nM. The GI50 (Sk-Br-3 cells) was 38 nM and the IC50 (Fadu cells) was 324 nM.
`C#Cc1cccc(Nc2c(C#N)cnc3cc(O[C@H]4CCOC4)c(NC(=O)/C=C/CN(C)CCO)cc23)c1` [Example 190, (S,E)-N-(3-CYANO-4-(3-ETHYNYLPHENYLAMINO)-7-(TETRAHYDROFURAN-3-YL-OXY)QUINOLIN-6-YL)-4-(N-METHYLETHANOLAMINO)-BUT-2-ENAMIDE] was tested, and the inhibition at 1 µM (A431 cells) was 79% and the IC50 (BT-474 cells) was 267 nM.
Work on `CN(C)C/C=C/C(=O)Nc1cc2c(Nc3ccc(F)c(Cl)c3)c(C#N)cnc2cc1Oc1cccnc1` [Example 174, (E)-N-(4-(3-CHLORO-4-FLUOROPHENYLAMINO)-3-CYANO-7-(PYRIDIN-3-YL-OXY)QUINOLIN-6-YL)4-(DIMETHYLAMINO)-BUT-2-ENAMIDE] yielded an IC50 (A431 cells) of 950 nM, an IC50 (A549 cells) of 3.7 µM and an IC50 (NCI-H460 cells) of 3000 nM.
